Results as given in ChEMBL document CHEMBL5726647, “Isoquinoline derivatives useful as inhibitors of diacylglyceride O-acyltransferase 2” (2017).

target: T1, Diacylglycerol O-acyltransferase 2 (Homo sapiens, UniProt Q96PD7); assay: Enzymatic Activity Assay: DGAT2 activity was determined by measuring the amount of enzymatic product triolein (1,2,3-Tri(cis-9-octadecenoyl)glycerol) using the membrane prep mentioned above.The assay was carried out in deep well 384 plates in a final volume of 40 μL at room temperature. The assay mixture contained the following: assay buffer (100 mM Tris.Cl, pH 7.0, 20 mM MgCl2, 5% ethanol), 25 μM of diolein, 10 μM of oleoyl-CoA and 10 ng/μL of DGAT2 membrane.
T1 sequence (Q96PD7 whole entry): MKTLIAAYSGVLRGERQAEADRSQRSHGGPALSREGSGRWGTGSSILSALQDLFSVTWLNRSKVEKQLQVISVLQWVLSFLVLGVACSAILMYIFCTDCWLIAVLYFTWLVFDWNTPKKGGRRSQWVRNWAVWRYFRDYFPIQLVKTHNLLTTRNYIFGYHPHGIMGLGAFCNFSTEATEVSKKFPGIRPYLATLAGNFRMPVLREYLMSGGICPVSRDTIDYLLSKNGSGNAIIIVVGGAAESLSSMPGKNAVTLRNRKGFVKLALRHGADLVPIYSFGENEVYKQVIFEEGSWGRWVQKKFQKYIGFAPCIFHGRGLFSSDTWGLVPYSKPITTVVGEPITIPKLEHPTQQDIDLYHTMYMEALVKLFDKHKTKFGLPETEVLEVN

Row | SMILES | IC50 [µM]
1 | COc1cccc(-c2ccc(CNC(=O)c3ccccc3CN3C=C(O)ON3)c3cnccc23)c1 | 4.2
2 | CCOC(=O)CCc1ccc(CNC(=O)Nc2cccc(Cl)c2Cl)c2cnccc12 | 7.61
3 | COc1cccc(-c2ccc(CNC(=O)Nc3cccc(Cl)c3Cl)c3ncccc23)c1 | 9.02
4 | COc1cccc(-c2ccc(CNC(=O)Cc3cncc(Br)c3)c3cnccc23)c1 | 7.13

Now those with a lower IC50, led by results:

Row | IC50 [µM] | SMILES
5 | 3.39 | COc1cccc(-c2ccc(CNC(=O)c3ncc(Br)cn3)c3cnccc23)c1
6 | 1.99 | COc1cccc(-c2ccc(CNC(=O)Cc3ccccc3Cl)c3cnccc23)c1
7 | 1.96 | COC(=O)c1cccc(-c2ccc(CNC(=O)Nc3cccc(Cl)c3Cl)c3cnccc23)c1
